Experimental data from patent US5703118A, “Use of benzopyran derivatives for the treatment of pathologies associated with the NA^+ -independent CI-/HCO3 -exchanger” (Adir et Compagnie, priority 1995, dated 1997).
Where two headings read alike, the source gives them in different places.

Legend:
isolated rat hearts = test: Cardiovascular study: arrhythmias in isolated rat hearts (Langendorff infusion), ischaemia-reinfusion; conditions: for inhibition at 0.1 µM: Rattus norvegicus, n=6, preliminary
Procedure: Example F: CARDIOVASCULAR STUDY
The compounds are tested at a concentration of 0.1 μM in a solution of DMSO in Krebs buffer (0.01% v/v) on arrhythmias. 6 isolated rat hearts were used for the test compound and 6 for the control. An infusion by the Langendorff method is performed (Rees S. A. and Curtis M.J.J. Card. Pharmacol. 1995, 26: 280-288).

[1] = system: Na^+ -independent Cl^- /HCO3^- exchanger; test: Activity of the Na^+ -independent Cl^- /HCO3^- exchanger in ventricular cardiomyocytes isolated from rat heart (acetate method, carboxy-SNARF-1 intracellular pH); format: cell-based
Procedure: Example A: MEASUREMENT OF THE ACTIVITY OF THE Na^+ -INDEPENDENT Cl^- /HCO3^- EXCHANGER IN VENTRICULAR CARDIOMYOCYTES ISOLATED FROM RAT HEART
The study is performed on ventricular cardiomyocytes isolated from rat heart by enzymatic dissociation. The intracellular pH of a single cell is measured by the fluorescent label carboxy-SNARF-1 whose fluorescence depends on its state of protonation (Buckler K. J. et al. Pflugers Archiv, 1990, 417: 234-239). The cells are "charged" beforehand with SNARF-1-AM (esterified and permeating form of the label) and the intracellular fluorescence of SNARF is monitored using an inverted microscope equipped with epifluorescence. The measurements are converted into pH using a calibration file.
The activity of the Na^+ -independent Cl^- /HCO3^- exchanger is studied after activation by induction of an alkaline charge of the cells by the acetate method (Roos A et al. Physiol. Rev., 1981, 61: 296-434). […]
The compounds according to the invention are used at concentrations of 10^-11 to 10^-5 M and their IC50 (50% inhibitory concentration) is calculated for each ion transporter. In parallel, the effects of the molecules on the intracellular intrinsic buffer power and the intracellular resting pH are determined.

In the case of `Cc1cc(C)c(NC(=O)C2(C)CCc3c(C)c(O)c(C)c(C)c3O2)cc1C` (centres unmarked) [Example 14, N-(2,4,5-trimethylphenyl)-(6-hydroxy-3,4-dihydro-2,5,7,8-tetramethyl-2H[1]-benzopyran-2-yl)carboxamide], the “activity on the cardiovascular system” value (isolated rat hearts; 0.1 μM, isolated rat heart) is reported as “possesses cardioprotective activity”, the inhibition at 0.1 µM (isolated rat hearts; in comparison with control hearts, read-out: reduction of the incidence of ventricular fibrillation observed during the ischaemia) is reported as 50% and the inhibition at 0.1 µM (isolated rat hearts; read-out: reduction of the incidence of ventricular fibrillation observed during reinfusion) is reported as 50%. For the same compound, the “selectivity of inhibition of the Na^+ -independent Cl^- /HCO3^- exchanger” value ([1]; Na^+ /H^+ exchange and Na^+ /HCO3^- cotransport also studied (ammonium method)) was “selective inhibitor” and the IC50 ([1]; activation by alkaline charge (acetate method), 10^-11 to 10^-5 M, read-out: IC50 (50% inhibitory concentration), Na^+ -independent Cl^- /HCO3^- exchanger) was roughly 0.1 nM.
